Results as given in patent US8058247B2 (priority 2006, dated 2011).

Key:
[1] = tested on: M. avium subsp. avium ATCC25291; assay: Minimum growth inhibitory concentration (MIC), serial dilution on Middlebrook 7H10 agar with mycobactin J; assay type: cell-based, Mycobacterium avium subsp. avium; details: 3-week incubation at 37° C., smaller number = higher activity
[2] = tested on: M. avium subsp. paratuberculosis ATCC43015; assay type: cell-based, Mycobacterium avium subsp. paratuberculosis
M. bovis BCG Japanese = assay type: cell-based, Mycobacterium bovis; details: agar dilution, 3-week incubation at 37° C.; smaller number = higher activity

Compound	Minumum growth inhibitory conc. of test compounds, M. avium subsp. avium ATCC25291 [1] [µg/mL]	Minumum growth inhibitory conc. of test compounds, M. avium subsp. paratuberculosis ATCC43015 [2] [µg/mL]	Minumum growth inhibitory conc. of test compounds, M. bovis BCG Japanese (M. bovis BCG Japanese) [µg/mL]	antibacterial activity against Mycobacterium avium subsp. paratuberculosis compared with the caprazamycin derivatives of Production Examples 1 and 2 [2]
caprazol-3′″-dodecanoyl ester derivative [Compound VII-F]	12.5	0.78	3.13	
caprazamycin B [CPZ-B]	12.5	3.13	6.25	lower antibacterial activity
NNC(=O)c1ccncc1 [INH, isoniazid]	>50	>50	0.20	lower antibacterial activity
